The values that follow come from patent US7674819B2 (Warner-Lambert Company LLC, priority 2005, dated 2010).

Some results are limits rather than exact numbers.

The IC50 is the concentration needed to halve the response being measured.

The target in the first experiment is T1, hAR (Homo sapiens, UniProt P10275).
T1 sequence (P10275 1-920): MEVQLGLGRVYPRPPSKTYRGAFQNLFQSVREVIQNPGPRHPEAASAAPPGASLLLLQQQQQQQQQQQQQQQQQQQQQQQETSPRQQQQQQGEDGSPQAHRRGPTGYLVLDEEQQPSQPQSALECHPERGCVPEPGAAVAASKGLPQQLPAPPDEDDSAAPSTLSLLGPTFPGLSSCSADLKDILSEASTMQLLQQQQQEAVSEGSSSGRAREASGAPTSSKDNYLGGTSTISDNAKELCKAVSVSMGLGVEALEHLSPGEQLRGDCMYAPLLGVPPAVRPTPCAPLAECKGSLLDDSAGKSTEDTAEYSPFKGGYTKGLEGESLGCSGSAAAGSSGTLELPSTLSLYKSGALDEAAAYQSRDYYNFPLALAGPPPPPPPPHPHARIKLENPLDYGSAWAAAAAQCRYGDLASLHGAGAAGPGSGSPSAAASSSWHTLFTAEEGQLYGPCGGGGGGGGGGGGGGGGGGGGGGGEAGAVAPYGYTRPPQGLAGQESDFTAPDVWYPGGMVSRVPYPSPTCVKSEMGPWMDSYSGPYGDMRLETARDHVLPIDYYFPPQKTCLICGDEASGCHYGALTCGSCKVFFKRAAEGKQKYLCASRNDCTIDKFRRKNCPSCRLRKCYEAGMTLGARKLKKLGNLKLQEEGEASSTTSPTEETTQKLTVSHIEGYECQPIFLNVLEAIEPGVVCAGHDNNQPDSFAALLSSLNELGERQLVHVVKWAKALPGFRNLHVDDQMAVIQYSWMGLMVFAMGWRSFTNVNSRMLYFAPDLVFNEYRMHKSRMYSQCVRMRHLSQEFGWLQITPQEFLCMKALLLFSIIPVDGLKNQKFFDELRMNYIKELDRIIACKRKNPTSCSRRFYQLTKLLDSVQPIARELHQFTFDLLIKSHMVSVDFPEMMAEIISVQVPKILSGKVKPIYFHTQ
Briefly: Competitive binding of 3H-DHT to baculovirus/Sf9 generated hAR extracts. Conditions: IC50, concentration at which one half of maximum binding of 1 nM 3H-DHT to hAR is inhibited; one hour at 4° C.; mean of multiple tests. As to the method:
The description below describes how the assay was carried out.
Competitive binding analysis was performed on baculovirus/Sf9 generated hAR extracts in the presence or absence of different concentrations of test agent and a fixed concentration of ^3H-dihydrotestosterone (^3H-DHT) as tracer. This binding assay method is a modification of a protocol previously described (Liao S., et. al. J. Steroid Biochem. 20:11-17 1984). Briefly, progressively decreasing concentrations of compounds are incubated in the presence of hAR extract (Chang et al. P.N.A.S. Vol. 89, pp. […], 1992), hydroxylapatite, and 1 nM^3H-DHT for one hour at 4° C. Subsequently, the binding reactions are washed three times to completely remove excess unbound ^3H-DHT. hAR bound ^3H-DHT levels are determined in the presence of compounds (i.e. competitive binding) and compared to levels bound when no competitor is present (i.e. maximum binding). Compound binding affinity to the hAR is expressed as the concentration of compound at which one half of the maximum binding is inhibited.
For the compound `CC1(C)CNC(=O)C1Oc1ccc(C#N)c(C(F)(F)F)c1` (single isomer, unassigned; (+)) [Example 3, (+)-4-(4,4-Dimethyl-2-oxo-pyrrolidin-3-yloxy)-2-trifluoromethyl-benzonitrile], the IC50 was determined as 0.435 µM. The same measure, in the same setting: for `CCCN1CC(C)(C)[C@H](Oc2ccc(C#N)c(C(F)(F)F)c2)C1=O` [Example 4B, (−)-4-(1-Propyl-4,4-dimethyl-2-oxo-pyrrolidin-3-yloxy)-2-trifluoromethyl-benzonitrile (E1)] the value was over 10 µM. Consider `COc1ccc(CN2CC(C)(C)C(Oc3ccc(C#N)c(C(F)(F)F)c3)C2=O)cc1` (centres unmarked) [Example 7, 4-[1-(4-Methoxy-benzyl)-4,4-dimethyl-2-oxo-pyrrolidin-3-yloxy]-2-trifluoromethyl-benzonitrile], for which the IC50 was determined as 0.298 µM.

For `COc1ccccc1CN1CC(C)(C)C(Oc2ccc(C#N)c(C(F)(F)F)c2)C1=O` (centres unmarked) [Example 10, 4-[1-(2-Methoxy-benzyl)-4,4-dimethyl-2-oxo-pyrrolidin-3-yloxy]-2-trifluoromethyl-benzonitrile], the IC50 worked out at 0.298 µM.

Take `CCCCCN1CC(C)(C)C(Oc2ccc(C#N)c(C(F)(F)F)c2)C1=O` (centres unmarked) [Example 31, 4-(4,4-Dimethyl-2-oxo-1-pentyl-pyrrolidin-3-yloxy)-2-trifluoromethyl-benzonitrile]: the IC50 stood at 0.268 µM. Regarding `CCC(CC)CN1CC(C)(C)C(Oc2ccc(C#N)c(C(F)(F)F)c2)C1=O` (centres unmarked) [Example 33, 4-[1-(2-Ethyl-butyl)-4,4-dimethyl-2-oxo-pyrrolidin-3-yloxy]-2-trifluoromethyl-benzonitrile], the IC50 was found to be 0.478 µM.

Still in this experiment, the particulars now being: concentration at which one half of maximum binding of 1 nM 3H-DHT to hAR is inhibited; one hour at 4° C.; mean of multiple tests; read-out: IC50.
For the compound `CC1(C)CN(C(=O)c2ccccc2)C(=O)C1Oc1ccc(C#N)c(C(F)(F)F)c1` (racemic) [Example 97, (±) 4-{1-Benzoyl-4,4-dimethyl-2-oxo-pyrrolidin-3-yloxy)-2-trifluoromethyl benzonitrile}], the IC50 amounted to 0.311 µM. Still for that read-out and setting: under `CCN1CC(C)(C)C(Oc2ccc(C#N)c(C(F)(F)F)c2)C1=O` (centres unmarked) [Example 21, 4-(1-Ethyl-4,4-dimethyl-2-oxo-pyrrolidin-3-yloxy)-2-trifluoromethyl-benzonitrile] stands 0.403 µM. Take `CC1(C)CN(Cc2cccc(C(=O)O)c2)C(=O)C1Oc1ccc(C#N)c(C(F)(F)F)c1` (centres unmarked) [Example 26, 3-[3-(4-Cyano-3-trifluoromethyl-phenoxy)-4,4-dimethyl-2-oxo-pyrrolidin-1-ylmethyl]-benzoic acid]: the IC50 stood at 0.343 µM. As for `CC1(C)CN(CC2CC2)C(=O)C1Oc1ccc(C#N)c(C(F)(F)F)c1` (centres unmarked) [Example 32, 4-(1-Cyclopropylmethyl-4,4-dimethyl-2-oxo-pyrrolidin-3-yloxy)-2-trifluoromethyl-benzonitrile], the IC50 came out at 0.42 µM. The same measure, in the same setting: under `CC1(C)CN(Cc2cccc(C(F)(F)F)c2)C(=O)C1Oc1ccc(C#N)c(C(F)(F)F)c1` (centres unmarked) [Example 34, 4-[4,4-Dimethyl-2-oxo-1-(3-trifluoromethyl-benzyl)-pyrrolidin-3-yloxy]-2-trifluoromethyl-benzonitrile] stands 0.437 µM; under `CC1(C)CN(Cc2ccc(SC(F)(F)F)cc2)C(=O)C1Oc1ccc(C#N)c(C(F)(F)F)c1` (centres unmarked) [Example 36, 4-[4,4-Dimethyl-2-oxo-1-(4-trifluoromethylsulfanyl-benzyl)-pyrrolidin-3-yloxy]-2-trifluoromethyl-benzonitrile], 0.484 µM. In the case of `Cc1ccc(Cc2noc(CN3CC(C)(C)C(Oc4ccc(C#N)c(C(F)(F)F)c4)C3=O)n2)cc1` (centres unmarked) [Example 43, 4-{4,4-Dimethyl-1-[3-(4-methyl-benzyl)-[1,2,4]oxadiazol-5-ylmethyl]-2-oxo-pyrrolidin-3-yloxy}-2-trifluoromethyl-benzonitrile], the IC50 turned out to be 0.283 µM. The same measure, in the same setting: for `CC1(C)CN(Cc2ccc(S(C)(=O)=O)cc2)C(=O)C1Oc1ccc(C#N)c(C(F)(F)F)c1` (centres unmarked) [Example 44, 4-[1-(4-Methanesulfonyl-benzyl)-4,4-dimethyl-2-oxo-pyrrolidin-3-yloxy]-2-trifluoromethyl-benzonitrile] the value was 0.346 µM; for `CC1(C)CN(Cc2nc(-c3ccncc3)no2)C(=O)C1Oc1ccc(C#N)c(C(F)(F)F)c1` (centres unmarked) [Example 49, 4-[4,4-Dimethyl-2-oxo-1-(3-pyridin-4-yl-[1,2,4]oxadiazol-5-ylmethyl)-pyrrolidin-3-yloxy]-2-trifluoromethyl-benzonitrile], 0.214 µM. Still for that read-out and setting: under `COc1ccccc1-c1nc(CN2CC(C)(C)C(Oc3ccc(C#N)c(C(F)(F)F)c3)C2=O)no1` (centres unmarked) [Example 51, 4-{1-[5-(2-Methoxy-phenyl)-[1,2,4]oxadiazol-3-ylmethyl]-4,4-dimethyl-2-oxo-pyrrolidin-3-yloxy}-2-trifluoromethyl-benzonitrile] stands 0.321 µM; under `CC1(C)CN(CC2CCCCC2)C(=O)C1Oc1ccc(C#N)c(C(F)(F)F)c1` (centres unmarked) [Example 53, 4-(1-Cyclohexylmethyl-4,4-dimethyl-2-oxo-pyrrolidin-3-yloxy)-2-trifluoromethyl-benzonitrile], 0.294 µM.

Consider `Cn1c(CN2CC(C)(C)C(Oc3ccc(C#N)c(C(F)(F)F)c3)C2=O)nc2ccccc21` (centres unmarked) [Example 55, 4-[4,4-Dimethyl-1-(1-methyl-1H-benzoimidazol-2-ylmethyl)-2-oxo-pyrrolidin-3-yloxy]-2-trifluoromethyl-benzonitrile], for which the IC50 came out at 0.5 µM.

For `COC(=O)c1ccoc1CN1CC(C)(C)C(Oc2ccc(C#N)c(C(F)(F)F)c2)C1=O` (centres unmarked) [Example 58, 2-[3-(4-Cyano-3-trifluoromethyl-phenoxy)-4,4-dimethyl-2-oxo-pyrrolidin-1-ylmethyl]-furan-3-carboxylic acid methyl ester], the IC50 was 0.313 µM. As for `Cc1onc(-c2ccccc2)c1CN1CC(C)(C)C(Oc2ccc(C#N)c(C(F)(F)F)c2)C1=O` (centres unmarked) [Example 59, 4-[4,4-Dimethyl-1-(5-methyl-3-phenyl-isoxazol-4-ylmethyl)-2-oxo-pyrrolidin-3-yloxy]-2-trifluoromethyl-benzonitrile], the IC50 worked out at 0.277 µM. As to `CC1(C)CN(Cc2ccc(-n3cncn3)cc2)C(=O)C1Oc1ccc(C#N)c(C(F)(F)F)c1` (centres unmarked) [Example 62, 4-[4,4-Dimethyl-2-oxo-1-(4-[1,2,4]triazol-1-yl-benzyl)-pyrrolidin-3-yloxy]-2-trifluoromethyl-benzonitrile], the IC50 was found to be 0.293 µM. As to `CC1(C)CN(Cc2nc(-c3ccc(C4SCCS4)cc3)no2)C(=O)C1Oc1ccc(C#N)c(C(F)(F)F)c1` (centres unmarked) [Example 63, 4-{1-[3-(4-[1,3]Dithiolan-2-yl-phenyl)-[1,2,4]oxadiazol-5-ylmethyl]-4,4-dimethyl-2-oxo-pyrrolidin-3-yloxy}-2-trifluoromethyl-benzonitrile], the half-maximal inhibitory concentration (IC50) amounted to 0.5 µM. Still for that read-out and setting: for `CC1(C)CN(CC2CCC2)C(=O)C1Oc1ccc(C#N)c(C(F)(F)F)c1` (centres unmarked) [Example 64, 4-(1-Cyclobutylmethyl-4,4-dimethyl-2-oxo-pyrrolidin-3-yloxy)-2-trifluoromethyl-benzonitrile] the value was 0.254 µM; for `CC1(C)CN(Cc2nc(-c3cccc([N+](=O)[O-])c3)no2)C(=O)C1Oc1ccc(C#N)c(C(F)(F)F)c1` (centres unmarked) [Example 67, 4-{4,4-Dimethyl-1-[3-(3-nitro-phenyl)-[1,2,4]oxadiazol-5-ylmethyl]-2-oxo-pyrrolidin-3-yloxy}-2-trifluoromethyl-benzonitrile], 0.437 µM. On the same count and under the same terms, under `Cc1noc(C)c1S(=O)(=O)N1CC(C)(C)C(Oc2ccc(C#N)c(C(F)(F)F)c2)C1=O` (centres unmarked) [Example 76, 4-[1-(3,5-Dimethyl-isoxazole-4-sulfonyl)-4,4-dimethyl-2-oxo-pyrrolidin-3-yloxy]-2-trifluoromethyl-benzonitrile] stands 0.43 µM; under `Cc1n[nH]c(C)c1S(=O)(=O)N1CC(C)(C)C(Oc2ccc(C#N)c(C(F)(F)F)c2)C1=O` (centres unmarked) [Example 77, 4-[1-(3,5-Dimethyl-1H-pyrazole-4-sulfonyl)-4,4-dimethyl-2-oxo-pyrrolidin-3-yloxy]-2-trifluoromethyl-benzonitrile], 0.246 µM.
